In ChEMBL document CHEMBL3627715, “Caffeoyl glucosides from Nandina domestica inhibit LPS-induced endothelial inflammatory responses” (Bioorg Med Chem Lett, 2015):

Key:
HUVEC [1] = test: Inhibition of LPS-induced neutrophil migration in HUVEC cells for 6 hrs pretreated with LPS for 4 hrs; format: functional, cell-based; conditions: Homo sapiens
HUVEC [2] = test: Inhibition of LPS-induced hyperpermeability in HUVEC cells for 6 hrs pretreated with LPS for 4 hrs by evans blue dye flux based immunofluorescence analysis; format: functional, cell-based; conditions: Homo sapiens
HUVEC [3] = test: Cytotoxicity against HUVEC cells assessed as neutrophil migration at 2.5 to 20 uM after 6 hrs; format: cell-based; conditions: human
HUVEC [4] = test: Inhibition of LPS-induced neutrophil migration in HUVEC cells assessed as migration index at 20 uM for 6 hrs pretreated with LPS for 4 hrs (reference value: 155); format: functional, Homo sapiens
HUVEC [5] = test: Inhibition of LPS-induced neutrophil adhesion in HUVEC cells assessed as neutrophil adhesion to cell monolayer at 20 uM for 6 hrs pretreated with LPS for 4 hrs by fluorescence microplate reader assay (reference value: 86%); format: functional, Homo sapiens; design: scale not given: the % may be the effect or the level left
HUVEC [6] = test: Cytotoxicity against HUVEC cells assessed as permeability at 2.5 to 20 uM after 6 hrs by evans blue dye flux based immunofluorescence analysis; format: cell-based; conditions: human
HUVEC [7] = test: Cytotoxicity against HUVEC cells assessed as neutrophil adhesion at 2.5 to 20 uM after 6 hrs by fluorescence microplate reader assay; format: cell-based; conditions: human
HUVEC [8] = test: Inhibition of LPS-induced neutrophil adhesion in HUVEC cells for 6 hrs pretreated with LPS for 4 hrs by fluorescence microplate reader assay; format: functional, cell-based; conditions: Homo sapiens
[9] = Acid hydrolysis of compound assessed as retention time at 2 mg after 6 hrs by RP-HPLC method; format: physicochemical
HUVEC [10] = test: Inhibition of LPS-induced hyperpermeability in HUVEC cells assessed as permeability at 20 uM for 6 hrs pretreated with LPS for 4 hrs by evans blue dye flux based immunofluorescence analysis (reference value: 100%); format: functional, Homo sapiens; design: scale not given: the % may be the effect or the level left

Retention_time [9] [min] | Compound | inhibition (HUVEC [1]) | inhibition (HUVEC [2]) | Activity (HUVEC [3]) | Activity_index (HUVEC [4]) | Activity (HUVEC [5]) [%] | Activity (HUVEC [6]) | Activity (HUVEC [7]) | inhibition (HUVEC [8]) | Activity (HUVEC [10]) [%]
28.1 | O=Cc1ccc(O[C@@H]2O[C@H](COC(=O)/C=C/c3ccc(O)c(O)c3)[C@@H](O)[C@H](O)[C@H]2O)cc1 | Dose-dependent effect | Dose-dependent effect | Non-toxic | 75 | 30 | Non-toxic | Non-toxic | Dose-dependent effect | 73
– | O=C(/C=C/c1ccc(O)c(O)c1)OCc1ccc(O[C@@H]2O[C@H](CO)[C@@H](O)[C@H](O)[C@H]2O)cc1 | – | – | – | 142 | 73 | – | – | – | –
– | O=c1cc(-c2ccc(O)c(O)c2)oc2c([C@@H]3O[C@H](CO)[C@@H](O)[C@H](O)[C@H]3O)c(O)cc(O)c12 [ORIENTIN] | Dose-dependent effect | – | – | 73 | 41 | – | – | – | 71
– | O=Cc1ccc(O[C@@H]2O[C@H](CO)[C@@H](OC(=O)/C=C/c3ccc(O)c(O)c3)[C@H](O)[C@H]2O)cc1 | Dose-dependent effect | Dose-dependent effect | Non-toxic | 74 | 33 | Non-toxic | Non-toxic | Dose-dependent effect | 58
